According to patent US11345702B1 (Myoforte Therapeutics, Inc., priority 2020, dated 2022):

Molecular target: 15-PGDH/HPGD (Homo sapiens (Human), UniProt P15428)
Assay: hPGDH inhibitor screening biochemical assay
Details: read-out: hPGDH: Average IC50
Outline: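 Recombinant human 15-PGDH (10 nM) pre-incubated with compounds 10 min at 37 °C, then 15 μM PGE2 and 0.25 mM NAD+ added for 10 min at room temperature in 50 mM Tris-HCl pH 7.5, 0.01% Tween 20. NADH fluorescence read at ex/em 340/485 nm. IC50 from 10-point curves, four-parameter fit versus 1% DMSO.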

Chain of 15-PGDH/HPGD (P15428 whole entry): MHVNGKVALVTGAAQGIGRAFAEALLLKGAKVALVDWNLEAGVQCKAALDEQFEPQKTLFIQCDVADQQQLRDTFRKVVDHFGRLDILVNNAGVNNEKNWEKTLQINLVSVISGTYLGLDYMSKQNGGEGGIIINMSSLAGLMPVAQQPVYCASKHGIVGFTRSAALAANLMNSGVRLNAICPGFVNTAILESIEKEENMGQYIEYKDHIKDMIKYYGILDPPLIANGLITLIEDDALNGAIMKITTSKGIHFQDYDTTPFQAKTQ

`CC(C)(C#N)c1cncc(-n2ccc3cc(C(=O)N4CCC(F)(F)CC4)cnc32)c1` [MF-DH-509, 2-(5-(5-(4,4-difluoropiperidine-1-carbonyl)-1H-pyrrolo[2,3-b]pyridin-1-yl)pyridin-3-yl)-2-methylpropanenitrile] and `O=C(c1cnc2c(ccn2-c2cccc(C(=O)N3CC[S+]([O-])C3)c2)c1)N1CCC(F)(F)CC1` (stereo not shown) [MF-DH-527, (4,4-difluoropiperidin-1-yl)(1-(3-(1-oxidothiazolidine-3-carbonyl)phenyl)-1H-pyrrolo[2,3-b]pyridin-5-yl)methanone] cannot be ordered by IC50: under 100 nM for the first, under 100 nM for the second.

First: CC(C)(O)CCC#Cc1nc2cc(C(=O)N3CCC(F)(F)CC3)cnc2n1-c1ccc(C#N)cc1 [MF-DH-544, 4-(6-(4,4-difluoropiperidine-1-carbonyl)-2-(5-hydroxy-5-methylhex-1-yn-1-yl)-3H-imidazo[4,5-b]pyridin-3-yl)benzonitrile]
Second: O=C(c1ccc2c(c1)ncn2-c1cccc(Cl)c1)N1CCC(F)(F)CC1 [MF-PGDH-026]
The IC50 of the first is higher: 100 to 1000 nM for the first, under 100 nM for the second. The second is the more potent here.

`C[C@H]1CCCN(C(=O)c2cnc3c(ccn3-c3ccc(C(=O)O)cc3)c2)C1` [MF-DH-562, (S)-4-(5-(3-methylpiperidine-1-carbonyl)-1H-pyrrolo[2,3-b]pyridin-1-yl)benzoic acid] and `O=C(c1cnc2c(ccn2-c2cccc(Cl)c2)c1)N1CCCCC1` [MF-PGDH-014] cannot be ordered by IC50: under 100 nM for the first, under 100 nM for the second.

`O=C(c1ccc2c(ccn2-c2cccc(Cl)c2)c1)N1CCCCC1` [MF-PGDH-004] and `O=C(c1ccc2c(cnn2-c2cccc(Cl)c2)c1)N1CCCCC1` [MF-PGDH-006, (1-(3-chlorophenyl)-1H-indazol-5-yl)(piperidin-1-yl)methanone] cannot be ordered by IC50: under 100 nM for the first, under 100 nM for the second.

`O=C(c1ccc2c(c1)c(Cl)cn2-c1cccc(Cl)c1)N1CCCCC1` [MF-PGDH-005] and `O=C(c1ccc2c(c1)ncn2-c1cccc(Cl)c1)N1CCCCC1` [MF-PGDH-023] cannot be ordered by IC50: under 100 nM for the first, under 100 nM for the second.

`O=C(c1ccn2c(-c3cccc(Cl)c3)cnc2c1)N1CCCCC1` [MF-PGDH-007, (3-(3-chlorophenyl)imidazo[1,2-a]pyridin-7-yl)(piperidin-1-yl)methanone] and `Cn1cc(-c2cccc(Cl)c2)c2ccc(C(=O)N3CCCCC3)cc21` [MF-PGDH-054, (3-(3-chlorophenyl)-1-methyl-1H-indol-6-yl)(piperidin-1-yl)methanone] cannot be ordered by IC50: under 100 nM for the first, under 100 nM for the second.

`COc1ccc(-n2cnc3cc(C(=O)N4CCCCC4)ccc32)cc1` [MF-PGDH-008] and `COc1ccc(-n2cnc3cc(C(=O)N4CCC(F)CC4)ccc32)cc1` [MF-PGDH-009] cannot be ordered by IC50: under 100 nM for the first, under 100 nM for the second.

`O=C(c1ccc2c(c1)nnn2-c1cccc(Cl)c1)N1CCCCC1` [MF-PGDH-011, (1-(3-chlorophenyl)-1H-benzo[d][1,2,3]triazol-5-yl)(piperidin-1-yl)methanone] and `O=C(c1ccc2c(c1)ncn2-c1cccc(Cl)c1)N1CCCCCC1` [MF-PGDH-016] cannot be ordered by IC50: under 100 nM for the first, under 100 nM for the second.

`O=C(c1cnc2c(-c3cccc(Cl)c3)cnn2c1)N1CCCCC1` [MF-PGDH-012, (3-(3-chlorophenyl)pyrazolo[1,5-a]pyrimidin-6-yl)(piperidin-1-yl)methanone] and `O=C(c1ccc2c(-c3cccc(Cl)c3)c[nH]c2c1)N1CCCCC1` [MF-PGDH-053, (3-(3-chlorophenyl)-1H-indol-6-yl)(piperidin-1-yl)methanone] cannot be ordered by IC50: under 100 nM for the first, under 100 nM for the second.

Compared with `O=C(c1ccc2c(c1)ncn2-c1cccc(Cl)c1)N1CC2CCCC2C1` (stereo not shown) [MF-PGDH-015], `O=C(c1ccc2c(c1)ncn2-c1cccc(Cl)c1)N1CC2CC2C1` (stereo not shown) [MF-PGDH-017] is higher in IC50: under 100 nM for the first, 100 to 1000 nM for the second. The first is the more potent here.

Compared with `O=C(c1ccc2c(c1)ncn2-c1cccc(Cl)c1)N1CC2CCC(C2)C1` [MF-PGDH-018], `O=C(c1ccc2c(c1)ncn2-c1cccc(Cl)c1)N1CCC(F)C1` (stereo not shown) [MF-PGDH-048] is higher in IC50: under 100 nM for the first, 100 to 1000 nM for the second. The first is the more potent here.

First: O=C(c1ccc2c(c1)ncn2-c1cccc(Cl)c1)N1CC2(CCC2)C1 [MF-PGDH-019]
Second: O=C(c1ccc2c(c1)ncn2-c1cccc(Cl)c1)N1CCCC1 [MF-PGDH-046]
The IC50 of the first is lower: under 100 nM for the first, 100 to 1000 nM for the second. The first is the more potent here.

First: COc1ccc(-n2c(C3CC3)nc3cc(C(=O)N4CCCCC4)ccc32)cc1 [MF-PGDH-021]
Second: COc1ccc(-n2cnc3cc(C(=O)N4CCCCC4)ccc32)nc1 [MF-PGDH-022]
The IC50 of the first is higher: 100 to 1000 nM for the first, under 100 nM for the second.

`COc1ccc(-n2cnc3cc(C(=O)N4CCCCC4)ccc32)cc1Cl` [MF-PGDH-024, (1-(3-chloro-4-methoxyphenyl)-1H-benzo[d]imidazol-5-yl)(piperidin-1-yl)methanone] and `O=C(c1ccc2c(c1)ncn2-c1ccc(O)c(Cl)c1)N1CCCCC1` [MF-PGDH-061, (1-(3-chloro-4-hydroxyphenyl)-1H-benzo[d]imidazol-5-yl)(piperidin-1-yl)methanone] cannot be ordered by IC50: under 100 nM for the first, under 100 nM for the second.

`CCOC(=O)c1nc2cc(C(=O)N3CCCCC3)ccc2n1-c1cccc(Cl)c1` [MF-PGDH-027, ethyl 1-(3-chlorophenyl)-5-(piperidine-1-carbonyl)-1H-benzo[d]imidazole-2-carboxylate] and `CCOC(=O)Cc1nc2cc(C(=O)N3CCCCC3)ccc2n1-c1cccc(Cl)c1` [MF-PGDH-030, ethyl 2-(1-(3-chlorophenyl)-5-(piperidine-1-carbonyl)-1H-benzo[d]imidazol-2-yl)acetate] cannot be ordered by IC50: under 100 nM for the first, under 100 nM for the second.

`CCOC(=O)CCc1nc2cc(C(=O)N3CCCCC3)ccc2n1-c1cccc(Cl)c1` [MF-PGDH-033, ethyl 3-(1-(3-chlorophenyl)-5-(piperidine-1-carbonyl)-1H-benzo[d]imidazol-2-yl)propanoate] and `NC(=O)CCc1nc2cc(C(=O)N3CCCCC3)ccc2n1-c1cccc(Cl)c1` [MF-PGDH-035, 3-(1-(3-chlorophenyl)-5-(piperidine-1-carbonyl)-1H-benzo[d]imidazol-2-yl)propanamide] cannot be ordered by IC50: under 100 nM for the first, under 100 nM for the second.

Compared with `O=C(O)CCc1nc2cc(C(=O)N3CCCCC3)ccc2n1-c1cccc(Cl)c1` [MF-PGDH-034, 3-(1-(3-chlorophenyl)-5-(piperidine-1-carbonyl)-1H-benzo[d]imidazol-2-yl)propanoic acid], `O=C(c1ccc2c(c1)CCC(=O)N2c1cccc(Cl)c1)N1CCCCC1` [MF-PGDH-058, 1-(3-chlorophenyl)-6-(piperidine-1-carbonyl)-3,4-dihydroquinolin-2(1H)-one] is higher in IC50: under 100 nM for the first, 100 to 1000 nM for the second. The first is the more potent here.

`O=C(c1ccc(COc2ccccc2Br)cc1)N1CCCCC1` [MF-PGDH-036] and `O=C(c1ccc(COc2ccccc2Cl)cc1)N1CCCCC1` [MF-PGDH-037] cannot be ordered by IC50: under 100 nM for the first, under 100 nM for the second.

`COc1cc(C(=O)N2CCCCC2)ccc1COc1ccccc1Cl` [MF-PGDH-038] and `COc1ccccc1C(=O)Nc1ccc(C(=O)N2CCCCC2)cc1` [MF-PGDH-041] cannot be ordered by IC50: under 100 nM for the first, under 100 nM for the second.

First: O=C(c1ccc(CSc2ccccc2Cl)cc1)N1CCCCC1 [MF-PGDH-039]
Second: O=C(c1ccc(C[S+]([O-])c2ccccc2Cl)cc1)N1CCCCC1 (stereo not shown) [MF-PGDH-045, (4-(((2-chlorophenyl)sulfinyl)methyl)phenyl)(piperidin-1-yl)methanone]
The IC50 of the first is lower: under 100 nM for the first, 100 to 1000 nM for the second. The first is the more potent here.

`O=C(c1ccc(CS(=O)(=O)c2ccccc2Cl)cc1)N1CCCCC1` [MF-PGDH-040, (4-(((2-chlorophenyl)sulfonyl)methyl)phenyl)(piperidin-1-yl)methanone] and `O=C(Nc1ccc(C(=O)N2CCCCC2)cc1)c1ccccc1Cl` [MF-PGDH-088] fall in the same range of IC50: 100 to 1000 nM for the first, 100 to 1000 nM for the second.

`COc1ccccc1C(=O)N(C)c1ccc(C(=O)N2CCCCC2)cc1` [MF-PGDH-042] and `COc1ccccc1NC(=O)c1ccc(C(=O)N2CCCCC2)cc1` [MF-PGDH-043, N-(2-methoxyphenyl)-4-(piperidine-1-carbonyl) benzamide] cannot be ordered by IC50: at least 1000 nM for the first, 100 to 1000 nM for the second.

`O=C(c1ccc2c(c1)ncn2-c1cccc(Cl)c1)N1CCC(F)(F)C1` [MF-PGDH-047] and `O=C(c1ccc2c(c1)ncn2-c1cccc(Cl)c1)N1CCC(O)C1` (stereo not shown) [MF-PGDH-050] cannot be ordered by IC50: at least 1000 nM for the first, at least 1000 nM for the second.

First: O=C(c1ccc2c(c1)ncn2-c1cccc(Cl)c1)N1CCC(Cl)C1 (stereo not shown) [MF-PGDH-049]
Second: O=C(c1ccc2c(c1)ncn2-c1cccc(Cl)c1)N1CCC(O)CC1 [MF-PGDH-052]
The IC50 of the first is lower: under 100 nM for the first, 100 to 1000 nM for the second. The first is the more potent here.

`O=C(c1ccc2c(c1)CCCN2c1cccc(Cl)c1)N1CCCCC1` [MF-PGDH-057, (1-(3-chlorophenyl)-1,2,3,4-tetrahydroquinolin-6-yl)(piperidin-1-yl)methanone] and `O=C(c1ccc2c(c1)ncn2-c1ccc2c(c1)OCO2)N1CCCCC1` [MF-PGDH-062] cannot be ordered by IC50: under 100 nM for the first, under 100 nM for the second.

`O=C(NC1CC1)c1ccc2c(c1)ncn2-c1cccc(Cl)c1` [MF-PGDH-063] and `CN(C(=O)c1ccc2c(c1)ncn2-c1cccc(Cl)c1)C1CC1` [MF-PGDH-064, 1-(3-chlorophenyl)-N-cyclopropyl-N-methyl-1H-benzo[d]imidazole-5-carboxamide] cannot be ordered by IC50: 100 to 1000 nM for the first, at least 1000 nM for the second.

`O=C(Nc1ccccc1)c1ccc2c(c1)ncn2-c1cccc(Cl)c1` [MF-PGDH-065] and `COc1cccc(C(=O)Nc2ccc(C(=O)N3CCCCC3)cc2)c1` [MF-PGDH-089] cannot be ordered by IC50: at least 1000 nM for the first, 100 to 1000 nM for the second.

`O=C(c1cnc2c(ccn2-c2ccccn2)c1)N1CCCCC1` [MF-PGDH-067] and `O=C(c1cnc2c(ccn2-c2ccncn2)c1)N1CCCCC1` [MF-PGDH-069] cannot be ordered by IC50: under 100 nM for the first, under 100 nM for the second.

`O=C(c1cnc2c(ccn2-c2cccnc2)c1)N1CCCCC1` [MF-PGDH-068] and `O=C(c1cnc2c(ccn2-c2cncnc2)c1)N1CCCCC1` [MF-PGDH-070] cannot be ordered by IC50: under 100 nM for the first, under 100 nM for the second.

`O=C(c1cnc2c(ccn2-c2cnccn2)c1)N1CCCCC1` [MF-PGDH-071] and `O=C(c1cnc2c(ccn2-c2cscn2)c1)N1CCCCC1` [MF-PGDH-074] cannot be ordered by IC50: under 100 nM for the first, under 100 nM for the second.

First: CCn1cnc(-n2ccc3cc(C(=O)N4CCCCC4)cnc32)c1 [MF-PGDH-073]
Second: Cn1cc(-n2ccc3cc(C(=O)N4CCCCC4)cnc32)cn1 [MF-PGDH-076]
The IC50 of the first is higher: 100 to 1000 nM for the first, under 100 nM for the second.

Compared with `O=C(c1cnc2c(ccn2-c2c[nH]cn2)c1)N1CCCCC1` [MF-PGDH-075], `COc1ccccc1C(=O)Nc1ccc(C(=O)N2CCC(F)(F)CC2)cc1` [MF-PGDH-087] is higher in IC50: under 100 nM for the first, 100 to 1000 nM for the second.
